{"source": "patent US10144952B2", "about": "“Stabilization and isolation of extracellular nucleic acids” (QIAGEN GmbH, priority 2013, dated 2018)", "key": {"[1]": {"test_system": "transcriptional activation of COX-2", "settings": "cited from earlier work"}, "[2]": {"settings": "cited from earlier work; for t1/2: buffer"}, "[3]": {"test_system": "etoposide-induced cortical neuron death", "settings": "cited from earlier work"}, "calpain II": {"target": "T1, calpain II (Homo sapiens, UniProt P17655)", "T1 sequence (P17655 1-700)": "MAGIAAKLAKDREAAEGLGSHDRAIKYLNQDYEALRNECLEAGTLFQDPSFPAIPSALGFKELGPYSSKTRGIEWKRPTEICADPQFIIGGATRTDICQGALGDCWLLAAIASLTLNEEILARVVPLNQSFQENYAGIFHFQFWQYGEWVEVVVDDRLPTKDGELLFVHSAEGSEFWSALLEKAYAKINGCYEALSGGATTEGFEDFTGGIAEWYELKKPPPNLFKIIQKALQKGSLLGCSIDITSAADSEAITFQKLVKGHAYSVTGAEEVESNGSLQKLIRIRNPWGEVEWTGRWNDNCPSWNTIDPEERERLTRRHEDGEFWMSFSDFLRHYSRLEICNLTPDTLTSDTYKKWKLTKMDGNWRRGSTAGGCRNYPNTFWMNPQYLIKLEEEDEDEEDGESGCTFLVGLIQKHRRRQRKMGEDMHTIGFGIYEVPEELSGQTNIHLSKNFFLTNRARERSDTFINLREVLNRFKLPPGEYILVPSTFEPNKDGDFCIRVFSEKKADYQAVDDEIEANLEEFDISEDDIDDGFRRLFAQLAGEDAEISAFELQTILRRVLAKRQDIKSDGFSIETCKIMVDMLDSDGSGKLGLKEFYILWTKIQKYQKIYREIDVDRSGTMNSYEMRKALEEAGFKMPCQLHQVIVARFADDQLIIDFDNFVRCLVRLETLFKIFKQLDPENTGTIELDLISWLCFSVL", "T1 sequence (P04632 1-268 partner)": "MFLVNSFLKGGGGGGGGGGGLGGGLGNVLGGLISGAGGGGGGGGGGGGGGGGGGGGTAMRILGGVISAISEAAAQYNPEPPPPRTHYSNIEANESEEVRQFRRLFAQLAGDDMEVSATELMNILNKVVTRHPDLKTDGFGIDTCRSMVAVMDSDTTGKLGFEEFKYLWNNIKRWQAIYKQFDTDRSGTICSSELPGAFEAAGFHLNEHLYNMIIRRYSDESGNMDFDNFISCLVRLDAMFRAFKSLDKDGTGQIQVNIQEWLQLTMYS", "settings": "irreversible inhibitor; cited from earlier work"}, "cathepsin L": {"target": "cathepsin L (Homo sapiens, UniProt P07711)", "sequence (P07711 114-333, species assumed)": "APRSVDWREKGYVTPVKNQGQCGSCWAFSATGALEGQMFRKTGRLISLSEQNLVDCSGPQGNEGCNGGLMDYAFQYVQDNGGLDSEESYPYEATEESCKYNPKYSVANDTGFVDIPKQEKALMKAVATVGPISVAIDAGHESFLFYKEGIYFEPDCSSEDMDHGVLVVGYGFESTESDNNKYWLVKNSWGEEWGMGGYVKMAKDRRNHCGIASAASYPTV", "settings": "cited from earlier work"}, "[4]": {"test_system": "Bid-induced cyctochrome c release from HeLa cell mitochondria", "settings": "at 5 μM; cited from earlier work"}, "[5]": {"test_system": "release of genomic DNA from white blood cells in whole blood (18S ribosomal DNA 66 bp and 500 bp amplicons)", "test": "18S rDNA qPCR: increase of DNA in plasma of stored whole blood", "type": "cell-based, human", "settings": "for released DNA / stabilization capability: 3 and 6 days at room temperature; for increase of 18S DNA from day 0: Example 5, 2.1, 20 μM, within 7 days of storage at RT", "description": "Detection of ribosomal 18S DNA by quantitative real-time PCR, makes it possible to calculate the x-fold increase of DNA from day 0 to day 3 or 7 (calculation: division of day 3 (or 7) copies by day 0 copies)."}, "[6]": {"test_system": "ladder-like pattern of genomic DNA fragments (apoptosis) in whole blood", "test": "chip gel electrophoresis of circulating cell-free DNA", "type": "cell-based", "settings": "20 μM in whole blood; day 3 and day 7", "method": "1.3.1 Measurement of the blood cell stability/DNA release by the determination of DNA size distribution using a chip gel electrophoresis (2100 Bioanalyzer; Agilent Technologies; Inc., USA) according to manufacturer's instruction (see handbook Agilent DNA 7500 and DNA 12000 Kit Guide), but 1.5 μl instead of 1 μl sample were transferred to the wells.\nEach tested caspase inhibitor was added to whole blood samples (20 μM end concentration in 10 ml blood; blood was collected into Vacutainer K2E Tubes; BD). The whole blood sample was processed as described in section 1 (plasma preparation and nucleic acid isolation).\nThe eluted circulating cell-free DNA was separated by size using chip gel electrophoresis (for details on the method see above). […] The DMSO control and the K2E blood (not treated according to the teachings of the present invention) show the same ladder-like pattern of bands. This pattern occurs in samples where apoptosis takes place. During apoptosis, endonucleases degrade genomic DNA at inter-nucleosomal linker regions and produce DNA fragments of circa 180 bp or multiples of 180 bp. Thus, apoptosis occurs in samples which show a clear ladder-like pattern. Furthermore, the strength (darkness) of the pattern is decisive. The darker the bands, the more genomic DNA was released from the cells and thus contaminates the extracellular nucleic acid population."}, "cells": {"test_system": "cells", "settings": "cited from earlier work"}, "[7]": {"test_system": "myocardial infarct size during reperfusion", "settings": "cited from earlier work"}}, "note": "Structures can show the parent of a compound that is named as a salt. Where a SMILES comes first, the peptide text is derived from it. The star is where a group is joined. Cbz = O=C(OCc1ccccc1)*; CH2F = FC*"}
{"compound": "O=c1c(O)c(-c2ccc(O)cc2)oc2cc(O)cc(O)c12", "note": "[Kaempferol]", "values": [{"measurement": "IC50", "setting": "[1]", "value": "< 15", "unit": "µM"}]}
{"compound": "O=[N+]([O-])c1ccc(-c2cn3c4c(sc3n2)CCCC4)cc1", "note": "[Pifithrin-α, p-Nitro, Cyclic]", "values": [{"measurement": "t1/2", "setting": "[2]", "value": 6, "unit": "h"}, {"measurement": "longer half-life than Pifithrin-α", "setting": "[2]; neuron culture medium at 37° C.", "value": 50, "unit": "%"}, {"measurement": "fold higher potency than Pifithrin-α", "setting": "[3]", "value": "A cell-permeable p53 inhibitor that exhibits 10-fold higher potency"}]}
{"compound": "CC(C)C[C@H](NC(=O)OCc1ccccc1)C(=O)N[C@@H](CC(C)C)C(=O)N[C@@H](Cc1ccc(O)cc1)C(=O)CF", "note": "[Calpain Inhibitor IV, Z-Leu-Leu-Tyr-CH2F] (HELM PEPTIDE1{[O=C(OCc1ccccc1)[*:2]].L.L.Y.[FC[*:1]]}$$$$V2.0)", "values": [{"measurement": "k2 calpain II", "setting": "calpain II", "value": "28,900 M-1s-1). Also acts as an inhibitor of cathepsin L (k2 ="}, {"measurement": "k2 cathepsin L", "setting": "cathepsin L", "value": "680,000 M-1s-1)."}]}
{"compound": "OC(CN1CCNCC1)Cn1c2ccc(Br)cc2c2cc(Br)ccc21", "note": "(racemic) [Bax Channel Blocker, (±)-1-(3,6-Dibromocarbazol-9-yl)-3-piperazin-1-yl-propan-2-ol,bis TFA]", "values": [{"measurement": "inhibition of Bid-induced cytochrome c release", "setting": "[4]", "value": "cyctochrome c release from HeLa cell mitochondria (~80%"}]}
{"compound": "CCCC(N)=O", "note": "[butanamide]", "values": [{"measurement": "released DNA / stabilization capability", "setting": "[5]; Example 2, 2.5, 3 or 3.5% butanamide or 5% DMAA with 1 μM caspase inhibitor and EDTA", "value": "at least comparable stabilization capabilities to DMAA"}, {"measurement": "released DNA / stabilization capability", "setting": "[5]; Example 3, butanamide 0.5-2% with DMPA 2.5-1%, 1 μM caspase inhibitor, EDTA", "value": "comparable stabilization capabilities"}, {"measurement": "increase in 18S rDNA", "setting": "[5]; Example 4, 0.5, 1.5 and 2.5% (w/v) butanamide with 1 μM caspase inhibitor and EDTA", "value": "significantly reduced increase in 18S rDNA"}]}
{"compound": "COC(=O)C[C@H](NC(=O)[C@H](C)NC(=O)[C@@H](NC(=O)OCc1ccccc1)C(C)C)C(=O)CF", "note": "[Z-Val-Ala-Asp(OMe)-FMK] (Cbz-Val-Ala-Asp(OMe)-CH2F)", "values": [{"measurement": "ladder-like pattern of cell-free DNA", "setting": "[6]", "value": "reduced ladder-like pattern"}, {"measurement": "increase of 18S DNA from day 0", "setting": "[5]", "value": "more prominent on day 7"}]}
{"compound": "CC(C)C(NC(=O)c1ccc2ccccc2n1)C(=O)NC(CC(=O)O)C(=O)COc1c(F)cccc1F", "note": "(stereo not drawn) [Q-VD-OPh, Quinoline-Val-Asp-CH2-OPH]", "values": [{"measurement": "toxicity to cells", "setting": "cells", "value": "not toxic to cells even at extremely high concentrations"}, {"measurement": "ladder-like pattern of cell-free DNA", "setting": "[6]", "value": "significantly reduced ladder-like patterns"}, {"measurement": "increase of 18S DNA from day 0", "setting": "[5]", "value": "reduced increase of DNA"}]}
{"compound": "N=c1sc2c(n1CC(=O)c1ccc([N+](=O)[O-])cc1)CCCC2", "note": "[Pifithrin-α, p-Nitro]", "values": [{"measurement": "t1/2", "setting": "[2]", "value": "biological systems (t1/2 = 8h in neuron culture medium at 37° C.)."}]}
{"compound": "Ac-Leu-Glu-His-Asp-CMK (LEHD; HELM PEPTIDE1{[ac].L.E.H.D.[ClC[*:1]]}$$$$V2.0; SMILES CC(=O)N[C@@H](CC(C)C)C(=O)N[C@@H](CCC(=O)O)C(=O)N[C@@H](Cc1c[nH]cn1)C(=O)N[C@@H](CC(=O)O)C(=O)CCl) [Caspase-9 Inhibitor III]", "values": [{"measurement": "concentration reported to reduce myocardial infarct size", "setting": "[7]", "value": "myocardial infarct size during reperfusion (~70 nM)."}]}
